According to patent US11696920B2, “Intelligent delivery of ingested and absorbed molecules” (IMMD SP. ZO.O, priority 2016, dated 2023):

Assays:
[1] = Serum EPA pharmacokinetics after 4 weeks of supplementation with DHA formulations; conditions: human, in vivo
liver lipid metabolism [2] = assay: Serum LDL cholesterol, DHA and carotenoid-SFA formulations, trial for 4 weeks; assay type: in vivo, human
liver lipid metabolism [3] = assay: Serum triglycerides, DHA and carotenoid-SFA formulations, trial for 4 weeks; assay type: in vivo, human
[4] = tested on: blood markers of oxidative and inflammatory damage; assay: IOD blood marker, DHA and carotenoid-SFA formulations, trial for 4 weeks; assay type: in vivo, human
Excerpt: (§1) Since DHA itself has antioxidant and anti-inflammatory properties it was important to assess whether its formulation with carotenoids and SFA would change them. Comparison of the effects of DHA and its new formulations on blood markers of oxidative and inflammatory damage is presented in Table 7.

LDL = assay: LDL-Px blood marker, DHA and carotenoid-SFA formulations, trial for 4 weeks; assay type: in vivo, human
Excerpt: as §1
It is worth pointing out that the real synergetic effect may be even more profound, because in both of those carotenoid-SFA formulations only half of the dose of the control DHA was used.

[5] = Serum DHA pharmacokinetics after 4 weeks of supplementation with DHA formulations; conditions: human, in vivo
[6] = publicly available trans-resveratrol formulations; cited from earlier work

Row | Compound | LDL cholesterol (liver lipid metabolism [2]; 0 w) [mg/dL] | LDL cholesterol (liver lipid metabolism [2]; 4 w) [mg/dL] | Δ LDL cholesterol vs 0 w (liver lipid metabolism [2]; 4 w) | Triglycerides (liver lipid metabolism [3]; 0 w) [mg/dL] | Triglycerides (liver lipid metabolism [3]; 4 w) [mg/dL] | Triglycerides, % of baseline (liver lipid metabolism [3]; 4 w) [%] | Δ Triglycerides vs 0 w (liver lipid metabolism [3]; 4 w) | IOD in MDA ([4]; 0 w) [µM] | IOD in MDA ([4]; 4 w) [µM] | IOD, % of baseline ([4]; 4 w) [%] | Δ IOD vs 0 w ([4]; 4 w) | LDL-Px (LDL; 0 w) [ELISA × 10^3] | LDL-Px (LDL; 4 w) [ELISA × 10^3] | LDL-Px, % of baseline (LDL; 4 w) [%] | Δ LDL-Px vs 0 w (LDL; 4 w) | other results
1 | CC/C=C\C/C=C\C/C=C\C/C=C\C/C=C\C/C=C\CCC(=O)O [DHA 500 mg, docosahexaenoic acid] | 154 ± 16 | 149 ± 15 | Δ = −5 mg/dL | 197 ± 18 | 184 ± 17 | 93 | Δ = −13 mg/dL | 165 ± 18 | 107 ± 11 | 65 | Δ = −58 μM | 700 ± 76 | 265 ± 27 | 38 | Δ = −435 ELISA × 10^3 | Combined increase in serum EPA [1]: 11.6 µg/mL; Serum EPA ([1]; 0 weeks): 56.5 ± 6.2 µg/mL; Increase in serum EPA ([1]; 2 weeks): 21%; Serum EPA ([1]; 2 weeks): 68.1 ± 7.4 µg/mL; Δ serum EPA vs 0 w ([1]; 2 weeks): Δ = +11.6 μg/ml; Serum EPA ([1]; 4 weeks): 35.8 ± 5.3 µg/mL; Reduction of serum triglycerides (liver lipid metabolism [3]; 4 weeks): 13 mg/dL; concentration at 0 weeks [5]: 106 ± 11 µg/mL; concentration at 2 weeks [5]: 134 ± 12 µg/mL; concentration at 4 weeks [5]: 108 ± 12 µg/mL; Increase in serum DHA ([5]; 2 weeks): 26%; Δ serum DHA vs 0 w ([5]; 2 weeks): Δ = +28 μg/ml; Δ serum DHA vs 0 w ([5]; 4 weeks): Δ = +2 μg/ml
2 | CC(C)=CCC/C(C)=C/C=C/C(C)=C/C=C/C(C)=C/C=C/C=C(C)/C=C/C=C(C)/C=C/C=C(\C)CCC=C(C)C [Lycopene 7 mg, Lycopene] | 158 ± 17 | 154 ± 16 | Δ = −4 mg/dL | 155 ± 12 | 150 ± 13 | 97 | Δ = −5 mg/dL | 111 ± 12 | 79 ± 9 | 71 | Δ = −32 μM | 133 ± 19 | 115 ± 14 | 86 | Δ = −18 ELISA × 10^3 | Effect on serum LDL level (liver lipid metabolism [2]; 4 weeks): did not affect level of LDL; Change in triglyceride concentrations (liver lipid metabolism [3]; end of the 4-week trial): no significant change
3 | Oc1ccc(/C=C/c2cc(O)cc(O)c2)cc1 [trans-resveratrol] | – | – | – | – | – | – | – | – | – | – | – | – | – | – | – | Fraction bioavailable after oral consumption [6]: 5%
